From patent publication US8729095B2, “3-(biaryloxy)propionic acid derivatives for prevention and/or treatment of thromboembolic diseases” (Daiichi Sankyo Company, Limited, priority 2009, dated 2014)
pIC50: −log10 of the molar value.

Legend:
[1] = test system: platelet aggregation induced by ADP in rat platelet-rich plasma (PRP); assay: Platelet aggregation inhibitory activity during oral administration in a rat (ex vivo, ADP-induced); settings: male Wistar rats, 1 mg/10 ml/kg orally, blood collected 4 hours after administration, ADP final concentration 3 μM, vs. control PRP (solvent only), read-out: Inhibition Rates (%)
Protocol: 1 mg/10 ml/kg of the test compound was orally administered by gavage to male rats (Slc: Wistar, age 8 to 9 weeks) that had been fasted overnight. 4 hours after administration, a syringe containing 1/10 volume of a 3.13% sodium citrate solution was used to collect blood from the abdominal aorta of a rat under anesthesia. From the collected blood, platelet-rich plasma (PRP) and platelet-poor plasma (PPP) were prepared according to the method described in the method for measuring human platelet aggregation inhibitory activity. PRP was left at rest at 16° C. for 30 minutes, and subsequently used for measurement.
200 μL of the separately collected PRP was dispensed into a cuvette for the aggregation test, followed by incubation at 37° C. for 2 minutes, and subsequently 2 μL of 0.3 mM ADP was added (final concentration 3 μM) to induce platelet aggregation.
Platelet aggregation was measured for 8 minutes using an aggregometer (MCM HEMA TRACER 313M; MC MEDICAL, INC.). With the light transmittance rate of PPP being set as an aggregation value of 100%, the maximum aggregation rate of PRP was determined, and compared with the maximum aggregation rate of control PRP (rat administered only with a solvent) to calculate inhibition rates.

[2] = test system: platelet aggregation induced by ADP in human platelet-rich plasma (PRP); assay: Human platelet aggregation inhibitory activity (ADP-induced, platelet-rich plasma); format: cell-based; settings: 8 min, ADP final concentration 20 μM, maximum aggregation rate, measured for 8 minutes
Protocol: A blood collecting syringe containing 1/10 volume of a 3.8% sodium citrate solution was used to collect blood from radial vein of a healthy person. The collected blood was centrifuged at 180×g at room temperature for 10 minutes to separate the supernatant (platelet-rich plasma; PRP). After PRP was separately collected, the remaining blood was centrifuged at 1,600×g for 10 minutes to separately collect platelet-poor plasma (PPP) of the upper layer. PRP was left at rest at 16° C. for 30 minutes, and subsequently used for measurement.
200 μL of the separately collected PRP was dispensed into a cuvette for the aggregation test, and 1 μL of dimethylsulfoxide (control) or a test compound solution diluted with dimethylsulfoxide was added, followed by incubation at 37° C. for 2 minutes. Subsequently, 2 μL of 2 mM ADP was added (final concentration 20 μM) to induce platelet aggregation.
Platelet aggregation was measured for 8 minutes using an aggregometer (MCM HEMA TRACER 313M; MC MEDICAL, INC.). With the light transmittance rate of PPP being set as an aggregation value of 100%, the maximum aggregation rate was determined for each concentration of the test compounds to calculate IC50 values.

Row | SMILES | inhibition at 1 mg/kg [1] | pIC50 [2]
1 | C[C@H](CC(=O)O)Oc1cc(F)ccc1-c1ccc(C(=O)N2CCC(N3C(=O)C(C)(C)Oc4ncc(Cl)cc43)CC2)c(F)c1 [Example 35, (3R)-3-[(4′-{[4-(7-Chloro-3,3-dimethyl-2-oxo-2,3-dihydro-1H-pyrido[2,3-b][1,4]oxazin-1-yl)piperidin-1-yl]carbonyl}-3′,4-difluorobiphenyl-2-yl)oxy]butanoic acid] | 96% | 5.44
2 | Cc1cc(-c2ccccc2O[C@H](C)CC(=O)O)ccc1C(=O)N1CCC(N2C(=O)C(C)(C)Cc3ncc(Cl)cc32)CC1 [Example 36, (3R)-3-[(4′-{[4-(7-Chloro-3,3-dimethyl-2-oxo-3,4-dihydro-1,5-naphthyridin-1(2H)-yl)piperidin-1-yl]carbonyl}-3′-methylbiphenyl-2-yl)oxy]butanoic acid] | 47% | 5.28
3 | C[C@H](CC(=O)O)Oc1ccccc1-c1cnc(C(=O)N2CCC(N3C(=O)C(C)(C)Cc4ncc(Cl)cc43)CC2)c(F)c1 [Example 38, (3R)-3-[2-(6-{[4-(7-Chloro-3,3-dimethyl-2-oxo-3,4-dihydro-1,5-naphthyridin-1(2H)-yl)piperidin-1-yl]carbonyl}-5-fluoropyridin-3-yl)phenoxy]butanoic acid] | 52% | 5.70
4 | CC[C@H](CC(=O)O)Oc1ccccc1-c1cnc(C(=O)N2CCC(N3C(=O)C(C)(C)Oc4ncc(Cl)cc43)CC2)c(F)c1 [Example 41, (3R)-3-[2-(6-{[4-(7-Chloro-3,3-dimethyl-2-oxo-2,3-dihydro-1H-pyrido[2,3-b][1,4]oxazin-1-yl)piperidin-1-yl]carbonyl}-5-fluoropyridin-3-yl)phenoxy]pentanoic acid] | 56% | 5.24
5 | C[C@H](CC(=O)O)Oc1ccc(F)cc1-c1cnc(C(=O)N2CCC(N3C(=O)C(C)(C)Oc4ncc(Cl)cc43)CC2)c(F)c1 [Example 42, (3R)-3-[2-(6-{[4-(7-Chloro-3,3-dimethyl-2-oxo-2,3-dihydro-1H-pyrido[2,3-b][1,4]oxazin-1-yl)piperidin-1-yl]carbonyl}-5-fluoropyridin-3-yl)-4-fluorophenoxy]butanoic acid] | 54% | 5.85
6 | C[C@H](CC(=O)O)Oc1ccc(F)cc1-c1cnc(C(=O)N2CCC(N3C(=O)C(C)(C)Cc4ncc(Cl)cc43)CC2)c(F)c1 [Example 44, (3R)-3-[2-(6-{[4-(7-Chloro-3,3-dimethyl-2-oxo-3,4-dihydro-1,5-naphthyridin-1(2H)-yl)piperidin-1-yl]carbonyl}-5-fluoropyridin-3-yl)-4-fluorophenoxy]butanoic acid] | 55% | 5.47
7 | Cc1cc(-c2cc(F)ccc2O[C@H](C)CC(=O)O)ccc1C(=O)N1CCC(N2C(=O)C(C)(C)Cc3ncc(Cl)cc32)CC1 [Example 45, (3R)-3-[(4′-{[4-(7-Chloro-3,3-dimethyl-2-oxo-3,4-dihydro-1,5-naphthyridin-1(2H)-yl)piperidin-1-yl]carbonyl}-5-fluoro-3′-methylbiphenyl-2-yl)oxy]butanoic acid] | 51% | 4.96
8 | C[C@@H](COc1ccccc1-c1cnc(C(=O)N2CCC(N3C(=O)C(C)(C)Cc4ncc(Cl)cc43)CC2)c(F)c1)C(=O)O [Example 46, (2S)-3-[2-(6-{[4-(7-Chloro-3,3-dimethyl-2-oxo-3,4-dihydro-1,5-naphthyridin-1(2H)-yl)piperidin-1-yl]carbonyl}-5-fluoropyridin-3-yl)phenoxy]-2-methylpropanoic acid] | 31% | 5.74
9 | C[C@H](CC(=O)O)Oc1ccccc1-c1ccc(C(=O)N2CCC(N3C(=O)C(C)(C)Oc4ncc(Cl)cc43)CC2)c(N)c1 [Example 50, (3R)-3-[(3′-Amino-4′-{[4-(7-chloro-3,3-dimethyl-2-oxo-2,3-dihydro-1H-pyrido[2,3-b][1,4]oxazin-1-yl)piperidin-1-yl]carbonyl}biphenyl-2-yl)oxy]butanoic acid] | 53% | 6.06
10 | C[C@H](CC(=O)O)Oc1ccccc1-c1cc(F)c(C(=O)N2CCC(N3C(=O)C(C)(C)Oc4ncc(Cl)cc43)CC2)c(F)c1 [Example 51, (3R)-3-[(4′-{[4-(7-Chloro-3,3-dimethyl-2-oxo-2,3-dihydro-1H-pyrido[2,3-b][1,4]oxazin-1-yl)piperidin-1-yl]carbonyl}-3′,5′-difluorobiphenyl-2-yl)oxy]butanoic acid] | 75% | 5.11
11 | C[C@H](CC(=O)O)Oc1ccccc1-c1ccc(C(=O)N2CCC(N3C(=O)C(C)(C)Oc4ncc(C#N)cc43)CC2)c(F)c1 [Example 52, (3R)-3-[(4′-{[4-(7-Cyano-3,3-dimethyl-2-oxo-2,3-dihydro-1H-pyrido[2,3-b][1,4]oxazin-1-yl)piperidin-1-yl]carbonyl}-3′-fluorobiphenyl-2-yl)oxy]butanoic acid] | 71% | 5.64
12 | CCc1cnc2c(c1)N(C1CCN(C(=O)c3ccc(-c4ccccc4O[C@H](C)CC(=O)O)cc3F)CC1)C(=O)C(C)(C)O2 [Example 53, (3R)-3-[(4′-{[4-(7-Ethyl-3,3-dimethyl-2-oxo-2,3-dihydro-1H-pyrido[2,3-b][1,4]oxazin-1-yl)piperidin-1-yl]carbonyl}-3′-fluorobiphenyl-2-yl)oxy]butanoic acid] | 44% | 5.19
13 | Cc1ccc(-c2ccc(C(=O)N3CCC(N4C(=O)C(C)(C)Oc5ncc(Cl)cc54)CC3)c(F)c2)c(O[C@H](C)CC(=O)O)c1 [Example 55, (3R)-3-[(4′-{[4-(7-Chloro-3,3-dimethyl-2-oxo-2,3-dihydro-1H-pyrido[2,3-b][1,4]oxazin-1-yl)piperidin-1-yl]carbonyl}-3′-fluoro-4-methylbiphenyl-2-yl)oxy]butanoic acid] | 68% | 5.08
